According to patent US9451909B2, “System and method for detecting amyloid proteins” (Cognoptix, Inc., priority 2010, dated 2016):

Assays:
[1] = Fluorescence spectra and fluorescence lifetime histogram of Compound #11; assay type: physicochemical
Source text: In an embodiment according to the invention, the light source may be configured to emit light of an appropriate wavelength for a peak region of a fluorescent excitation spectrum for the amyloid-binding compound bound to the amyloid protein in the eye, and the optical unit may be configured to detect light of an appropriate wavelength for a peak region of a fluorescent emission spectrum for the amyloid-binding compound bound to the amyloid protein in the eye. For example, where the amyloid-binding compound is Compound #11, the excitation spectrum has a peak of about 470 nm, and the light source may be configured to emit light within plus or minus about 20 nm of the peak of about 470 nm, such as within plus or minus 5 nm, plus or minus 10 nm, plus or minus 15 nm or plus or minus 20 nm of 470 nm. Further, the emission spectrum for Compound #11 has a peak of about 580 nm, and the optical unit may be configured to detect light within plus or minus about 20 nm of the peak of about 580 nm, such as within plus or minus 5 nm, plus or minus 10 nm, plus or minus 15 nm or plus or minus 20 nm of 580 nm. In general, there is typically a shift between the peak of the excitation spectrum and the peak of the emission spectrum of a fluorescent compound. […] For example, an emission spectrum having a peak greater than about 500 nm is advantageous for distinguishing from the natural autofluorescence of the eye. […] FIG. 12 is an emission spectrum of the fluorescent amyloid-binding compound Compound #11 when excited at 470 nm, in accordance with an embodiment of the invention. Other excitation and emission spectra that may be used will be apparent to those of skill in the art based on the foregoing.
A fluorescent histogram of the fluorescent amyloid-binding compound Compound #11 is shown in FIG. 6, obtained by a device in accordance with an embodiment of the invention. Single exponential fitting results in a lifetime decay rate of 2 nsec.

[2] = tested on: aggregated Aβ(1-42) peptide; test: In vitro fluorescence lifetime measurements of Compound #11 with aggregated Aβ peptide (SAPPHIRE II device); assay type: binding; details: unbound; 4 μM Compound #11, PBS, 25° C.
Procedure: (§1) In accordance with an embodiment of the invention, in vitro studies on aggregated Aβ peptides bound to Compound #11 were performed. Fluorescence lifetime measurements of Compound #11 with aggregated Aβ peptide were performed using a device in accordance with an embodiment of the invention. FIG. 8A is a fluorescence lifetime image showing Compound #11 and Compound #11 bound to aggregated Aβ peptide, with their corresponding fluorescence lifetime histograms shown in FIG. 8B, in accordance with an embodiment of the invention. By fitting the lifetime histograms, the decay rates are determined. […] An experimental description follows.
(§2) The purpose of this in vitro study was to identify the optical signature of the Compound #11 amyloid-binding compound, and to characterize its fluorescence properties when bound to aggregated Aβ peptide. […]
(§3) The Neuroptix SAPPHIRE II device (Neuroptix Corporation, Acton, Mass., U.S.A.) is a purpose built device for clinical studies in humans, which was adapted for in vitro measurements for this experiment. It employs a confocal scanning mechanism combined with fluorescence lifetime spectroscopy that allows differentiation of fluorophores. The device allows 1) scanning of the optical beam to specific locations in the anterior segments of the eye, such as the supranucleus and 2) identification of fluorescent fluorophores based on fluorescence lifetime measurements.
(§4) Aggregated Aβ peptide was prepared by dissolving Aβ(1-42) in PBS pH 7.4 to a final concentration of 100 μM. […] The solution was transferred to 5 mL vial and the fluorescence measurements were performed at 25° C.
(§5) The sample consisting of Compound #11 was placed in front of the Neuroptix SAPPHIRE II Device. Once the location of the scan in the sample was determined, a raster scan was performed to obtain fluorescence lifetime measurements. […] The shading that makes up most of the image background represents a lifetime decay of 1.4 nsec, which corresponds to that of the fluorescence amyloid-binding compound. […]

[3] = target: T1, aggregated Aβ(1-42) peptide (Homo sapiens, UniProt P05067); test: as above; assay type: binding
T1 construct: Aggregated Aβ peptide was prepared by dissolving Aβ(1-42) in PBS pH 7.4
T1 sequence (P05067 672-713): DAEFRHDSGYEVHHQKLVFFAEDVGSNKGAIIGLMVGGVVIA
Procedure: as §1, §2, §3, §4, §5

[4] = target: aggregated beta-amyloid (Aβ) peptide (Homo sapiens, UniProt P05067); details: cited from earlier work
aggregated beta-amyloid (Aβ) peptide, sequence (P05067 672-713 limits assumed): as the sequence (P05067 672-713) above

[5] = Ocular pharmacokinetics study, topical ointment, fluorescence lifetime and intensity measurements in the lens; assay type: in vivo, Dutch-belted rabbits
Procedure: Ocular pharmacokinetic investigation of dose response via topical administration of fluorescence amyloid-binding compound was performed in Dutch-belted rabbits. The rabbits were tested each day over a 4 day period using Compound #11 amyloid-binding compound in an ointment. Two animals were dosed in the right eye with Compound #11 (0.5%) in ointment form. One animal was untreated and used as control animal. The animals were dosed at specific time points for four days and tested with SAPPHIRE II system for fluorescence intensity and lifetime measurements at the beginning and end of each day.
All animals were dosed with Compound #11 via topical ocular application and tested in the right eye. Animals were anesthetized and manually held on a platform in front of the Neuroptix SAPPHIRE II device. Gross positioning was done by the animal handler, and fine tuning of the measurement location was done by the Neuroptix SAPPHIRE II operator. Once aligned, the SAPPHIRE II operator initiated the measurement sequence. Baseline measurements were made on the animals before dosing, and then at the beginning and end of each day (Table 1).
Fluorescence lifetime and intensity measurements were performed in the eye at the beginning and at the end of each day. The measurements entailed scanning the rabbit eye axially (z-scan) to obtain inter-ocular information and a planar scan (xy-scan) to perform lifetime decay measurements in a certain region of the eye, which is the lens nucleus in this case.
Once the location of interest was identified, Time Correlation Single Photon Counting (TCSPS) was initiated while performing the xy-scan. The fluorescence lifetime images were then obtained where the decay lifetime histogram was obtained for each pixel location. The calculated decay times were color coded in the fluorescence lifetime image. Each measurement was performed three times. The frequency count of photons of specific decay rates were calculated from the decay rates frequency that of the Compound #11 signature obtained in the xy-scan and averaged over the three measurements. […] The device was specifically designed for human use but the platform was slightly modified for holding the rabbits.
Group 1: Animals were anesthetized with subcutaneous injection of Dexdomitor (0.5 mg/kg), Ketamine (5 mg/kg). A ribbon of ointment approximately ½ inch long was then applied to the lower right eyelid of each animal in the test group three times a day for four days.

In the case of `COCCOCCOCCOC(=O)/C(C#N)=C/c1ccc2cc(N3CCCCC3)ccc2c1` [Compound #11, (E)-2-(2-(2-methoxyethoxy)ethoxy)ethyl-2-cyano-3-(6-(piperidin-1-yl)naphthalen-2-yl)acrylate], the excitation spectrum peak [1] is reported as “about 470 nm”, the emission spectrum peak ([1]; excited at 470 nm) is reported as “about 580 nm” and the lifetime decay rate ([1]; single exponential fitting of fluorescent histogram (FIG. 6)) is reported as 2 nsec. For the same compound, the “fluorescence lifetime decay (time decay rate) of unbound compound” value [2] was 1.4 nsec, the “difference in fluorescence lifetime, bound vs unbound” value ([3]; Compound #11 vs Compound #11 bound to aggregated Aβ peptide) was 0.85 nsec and the “fluorescence lifetime decay (time decay rate) of compound bound to aggregated Aβ peptide” value ([3]; bound to aggregated Aβ(1-42) 5 μM, 4 μM Compound #11, 25° C.) was 2.25 nsec. For the same compound, the “binding to aggregated beta-amyloid (Aβ) peptide” value [4] was “has been shown to bind”, the “fluorescence signal after repetitive topical administration” value ([5]; 5 mg/g in ointment form, three times a day for four days) was “Detectable fluorescence signal” and the “decay rate in lifetime image of the lens (xy-scan)” value ([5]; animal 1003, end of fourth day) was 2 nsec. For the same compound, the “change of fluorescence in the lens nucleus over four days” value ([5]; measured at beginning and end of each day, 4 days, rabbits 1002 and 1003) was “increase of Compound #11 fluorescence”, the “time of stay in the lens nucleus” value ([5]; repetitive topical administration) was “at least 12 hours” and the “accumulation in the lens nucleus” value ([5]; repetitive topical administration, after several hours of application) was “tended to accumulate in the nucleus”. The “penetration of the cornea and detection in the lens” value ([5]; topical ocular, rabbit eyes) was “penetrate the cornea and be detected by the device in the lens”.
